Here are results for one compound from patent publication US20100254996A1, “SYNERGISTIC TREATMENT OF CELLS THAT EXPRESS EPHA2 AND ERBB2” (MEDIMMUNE, LLC, priority 2007, published 2010).

This test concerns the target T1, ErbB2 (Homo sapiens, UniProt P04626).
T1 construct: expressed in transfected cells; host or cells: MCF10A human mammary epithelial cells stably expressing HER2 (MCF10A.HER2; Ueda et al., 2004)
Briefly: EphA2 and ErbB2 phosphorylation in MCF10A cells overexpressing HER2 after ErbB2 kinase inhibitor (immunoprecipitation/immunoblot). It is filed as cell-based. Conditions: 10 mg/ml AG825 for 24 or 48 hours. The procedure: For Ras and Rho/Rac pulldown assays, tumor tissue was collected, weighed, mechanically homogenized in phosphate buffered saline (PBS) pelleted, and resuspended in manufacturer recommended assay buffer (Upstate Biotechnology). Approximately […] tumor lysate was used per assay. Ras assays were performed using Raf-1 Ras binding domain-GST assay reagent (Upstate Biotechnology) as per manufacturer's protocol. Rho assays were performed using Rhotekin binding domain-GST reagents as previously described (Fang et al., 2005). For some co-immunoprecipitation assays, COST cells were co-transfected with […] each of myc-tagged erbB2 (pcDNA3-erbB2) and ephA2 (pcDNA3-EphA2) using Lipofectamine 2000 (Invitrogen). Cells were lysed in 1% NP-40 Buffer (10 mM Tris-HCl pH 7.5, 150 mM NaCl, 2 mM EDTA, 1% NP-40 plus 50 mM protease inhibitors). Lysates were used for immunoprecipitation with an anti-myc (Sigma-Aldrich) and anti-EphA2 antibodies (Santa Cruz, sc-924) antibodies. Immune complexes were resolved on SDS-PAGE and western blotted using anti-EphA2 and anti-myc antibodies. EphA2 was immunoprecipitated from MMTV-Neu cells, followed by treatment of half the samples with the 1 mM of the cross-linking agent DTSSP. Immunoprecipitates were subjected to western blot analysis using anti-ErbB2 (Neomarkers, 1:2000). EphA2 and ErbB2 were immunoprecipiated from MCF10A and MCF10A.HER2 cells as described above. […]

T1 sequence (P04626 23-1255): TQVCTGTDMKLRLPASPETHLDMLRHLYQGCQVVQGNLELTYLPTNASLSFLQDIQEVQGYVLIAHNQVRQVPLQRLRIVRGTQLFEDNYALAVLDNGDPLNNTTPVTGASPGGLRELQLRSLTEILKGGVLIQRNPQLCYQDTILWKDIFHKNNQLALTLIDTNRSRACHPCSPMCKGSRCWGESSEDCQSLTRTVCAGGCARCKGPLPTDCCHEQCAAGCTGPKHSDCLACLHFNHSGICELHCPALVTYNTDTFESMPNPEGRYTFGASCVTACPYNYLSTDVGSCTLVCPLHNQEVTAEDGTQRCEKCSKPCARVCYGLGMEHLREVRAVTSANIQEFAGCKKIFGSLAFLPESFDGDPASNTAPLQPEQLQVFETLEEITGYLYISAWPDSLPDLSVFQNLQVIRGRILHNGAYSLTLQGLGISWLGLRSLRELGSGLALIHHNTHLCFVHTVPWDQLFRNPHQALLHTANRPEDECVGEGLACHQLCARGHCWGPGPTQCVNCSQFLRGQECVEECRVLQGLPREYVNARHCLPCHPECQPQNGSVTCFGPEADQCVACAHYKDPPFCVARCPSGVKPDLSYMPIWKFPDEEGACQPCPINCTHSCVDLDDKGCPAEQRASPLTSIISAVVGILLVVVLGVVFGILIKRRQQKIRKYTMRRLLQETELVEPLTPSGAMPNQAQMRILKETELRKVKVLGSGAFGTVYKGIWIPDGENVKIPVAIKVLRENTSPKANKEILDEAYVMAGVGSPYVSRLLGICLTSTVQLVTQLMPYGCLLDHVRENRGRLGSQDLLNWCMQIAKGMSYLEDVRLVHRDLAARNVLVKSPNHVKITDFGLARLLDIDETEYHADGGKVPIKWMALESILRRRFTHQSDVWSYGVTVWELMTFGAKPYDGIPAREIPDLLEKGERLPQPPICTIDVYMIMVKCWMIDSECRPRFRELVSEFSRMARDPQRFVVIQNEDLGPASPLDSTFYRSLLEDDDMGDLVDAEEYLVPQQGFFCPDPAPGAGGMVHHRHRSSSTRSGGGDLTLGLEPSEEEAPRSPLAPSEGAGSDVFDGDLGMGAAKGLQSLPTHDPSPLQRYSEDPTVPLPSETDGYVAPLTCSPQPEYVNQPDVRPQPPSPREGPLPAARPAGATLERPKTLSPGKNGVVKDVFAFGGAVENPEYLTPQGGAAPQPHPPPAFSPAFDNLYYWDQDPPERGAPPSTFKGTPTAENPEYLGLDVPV

Turning to `COc1cc(/C=C(\C#N)C(N)=O)cc(CSc2nc3ccccc3s2)c1O` [AG825], the EphA2 phosphorylation entry was “reduced” and the ErbB2 phosphorylation result was “reduced”.
